Data published in US11376242B2, “Methods and compositions for treating obesity and/or diabetes and for identifying candidate treatment agents” (The J. David Gladstone Institutes, a testamentary trust …, priority 2016, dated 2022).

Legend:
[1] = system: ClpP substrate protein levels in mouse MEF cells; experiment: Western blot analysis of ClpP substrates in MEF cells treated with ClpP inhibitors; format: cell-based; conditions: 10 μM in OPTI-MEM twice a day for 2 days (48 hr); wild type mouse MEF cells; western blot (FIGS. 24 and 25)
Protocol: (§1) Western blot. Tissues or cells were lysated in low-detergent buffer (50 mM Tris/HCl, pH 8.0, 150 mM NaCl, 0.1% SDS, 0.5% Nonidet P-40, 0.5% sodium deoxycholate) with a mixture of protease inhibitors. Phosphatase inhibitors were also included in the lysate buffer. The lysates were centrifuged at 13,000 rpm for 10 min to remove the pellets. SDS-PAGE was performed with a NuPAGE bis-tris system from Invitrogen, following the vendor's protocol. A standard western blot protocol was used with IRDye-labeled secondary antibodies (Li-cor). A Li-cor image system was used to scan the western blot images.
(§2) Wild type mouse MEF cells were seeded at 200,000 cells per well at 6 well plates the day before treatment. Cells were treated with the small molecule ClpP inhibitors A2-32-01, AV167, and AV179 (described previously herein) at 10 μM in OPTI-MEM twice a day for 2 days (48 hr). For each treatment, the old medium will be removed and fresh medium added to the wells. After 48 hr treatment, the cells were harvested for western blot analysis or qPCR assay of ClpP substrates.

[2] = system: mRNA level of these genes in mouse MEF cells; experiment: qPCR assay of ClpP substrates in MEF cells treated with ClpP inhibitor; format: cell-based; conditions: 10 μM twice a day for 2 days (48 hr), qPCR (FIG. 26)
Protocol: as §2

[3] = system: high fat diet (HFD)-induced obesity and diabetes mouse models; experiment: In vivo treatment in high fat diet (HFD)-induced obesity and diabetes mouse model
Excerpt: Animals. All mice were maintained on a 12-h light/dark cycle in a pathogen-free animal facility. Mice were separately housed by their genotypes for all metabolic studies. For high-fat diet (HFD)-induced obesity studies, animals were fed a HFD (21% by weight, 42% kcal from fat, 0.2% total cholesterol; TD.01064, Harlan-Teklad) for specified periods. Anesthesia was induced with isoflurane (survival procedures) or with avertin (terminal procedures). All procedures were approved by the UCSF Animal Research Committee and followed NIH guidelines. Animal sample sizes for different assays were chosen based on previous literature. Animals were grouped according to genotype; no randomization was used. For all behavior tests, all animal IDs were blinded to tester. Testers were not blinded for other assays.
(§3) Measurement of blood glucose and plasma insulin. Blood glucose was measured with a glucometer and glucose test strips (Free Style Lite). Plasma insulin was quantified with an insulin Elisa kit (Crystal Chem).
(§4) Glucose, insulin, and pyruvate tolerance tests. Glucose, insulin, and pyruvate tolerance tests were performed by intraperitoneal injection of glucose (2 g/kg), insulin (0.5 units/kg) or pyruvate (2 g/kg) after an overnight fast for glucose and pyruvate or a 4-h fast for insulin. Blood glucose levels were measured before injection and at different time points after injection. To assess glucose-stimulated insulin release, mice fasted overnight (for 16 h) and were then injected intraperitoneally with glucose (2 g/kg). Blood samples were collected from tail veins before injection and at different time points after injection.
(§5) Histological analysis. Tissues (liver, visceral adipose, gastrocnemius muscle, interscapular brown adipose, and pancreas) were fixed in 4% paraformaldehyde (pH 7.4) overnight, embedded in paraffin, and serially sectioned at 7-8 μm. Standard haematoxylin and eosin staining was performed.
7-9 month old WT female (20 mice), were fed with high fat diet for 3 weeks. Body weight change and blood glucose/plasma insulin levels in response to HFD were measured. At the beginning of the 4th week, for treatment group, A2-32-01 was injected peritoneally twice daily at 300 mg/kg for 8 days. For the control group, corn oil (vehicle) was injected. The mice were maintained on HFD. The body weight change was followed every day. At the 8th day of A2-32-01 injection, blood glucose levels were measured, and a glucose tolerance test was applied to measure insulin sensitivity.
(§6) The in-vivo analysis described in Examples 9 and 10 was continued in accordance with the experimental protocol shown in FIG. 30.

ClpP [4] = target: T1, ClpP (Mus musculus, UniProt O88696); experiment: ClpP activity in liver mitochondrion lysates from treated HFD-fed mice; format: in vivo; conditions: HFD-fed WT mice; vs vehicle-treated (FIG. 32 left panel)
T1 construct: ClpP activity was lower in liver mitochondrion lysates from A2-32-01-treated mice compared to those from vehicle-treated mice; from tissue; host or cells: liver mitochondria of HFD-fed wild-type mice dosed in vivo with A2-32-01
Protocol: (§7) The in-vivo analysis of Example 9 is continued, with collection of the blood and multiple organs (liver/muscle/brain) at day 9 of A2-32-01 injection. Mitochondria are isolated from mouse liver and ClpP activity is tested using peptide substrates, e.g., as described herein. Western blot analysis is performed to detect ClpP substrate levels.
as §6

[5] = system: tentative ClpP effectors (Trap1, ClpX, LRPPRC, LonP, and OAT); experiment: Western blot of tentative ClpP effectors in liver mitochondrion lysates from treated HFD-fed mice; format: in vivo, mouse; conditions: HFD-fed WT mice, vs vehicle-treated (FIG. 32 right panel)
Protocol: as §1, §7, §6

[6] = system: db/db mice (a model of obesity, diabetes, and dyslipidemia); experiment: In vivo treatment of db/db mice; design: species or system mouse
Protocol: as §3, §4, §5

ClpP [7] = target: T1, ClpP; experiment: ClpP activity in liver mitochondria lysates from treated db/db mice; format: in vivo; conditions: vs vehicle (FIG. 35 panel E)
[8] = WT mice on HFD, H&E and oil red staining, vs vehicle (FIG. 33)
[9] = H&E and oil red staining, vs vehicle (FIG. 36)

T1 sequence (O88696 53-272): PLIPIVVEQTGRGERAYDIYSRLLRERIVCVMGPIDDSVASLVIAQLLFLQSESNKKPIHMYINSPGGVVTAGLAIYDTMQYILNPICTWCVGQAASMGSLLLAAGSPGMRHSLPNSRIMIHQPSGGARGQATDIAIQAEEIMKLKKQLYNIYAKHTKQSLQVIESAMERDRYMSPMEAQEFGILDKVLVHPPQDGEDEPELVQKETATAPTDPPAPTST

- ClpP activity in liver mitochondrion lysates (ClpP [4]): lower
- ClpP activity in liver mitochondria lysates (ClpP [7]): lower
SMILES: C=CCCCCCCC[C@H]1C(=O)O[C@@H]1CCc1cccnc1 (racemic) [A2-32-01, (3RS,4RS)-3-(non-8-en-1-yl)-4-(2-(pyridin-3-yl)ethyl)oxetan-2-one]
- ClpP substrate protein levels [1]: increased
- mRNA level of ClpP substrate genes [2]: remained unchanged
- body weight ([3]; 300 mg/kg peritoneally twice daily, day 2 through day 7, HFD-fed WT female mice, vs vehicle control (FIG. 28)): significant decrease
- insulin sensitivity (glucose tolerance test) ([3]; 300 mg/kg peritoneally twice daily, day 8, HFD-fed WT mice, vs vehicle control (FIG. 29)): significant improvement
- insulin sensitivity (glucose tolerance tests) ([3]; Example 11, HFD-fed WT mice, vs vehicle (FIG. 31 right panel)): increased
- body weight ([3]; Example 11, mice on HFD, vs vehicle-treated (FIG. 31 left panel)): significantly decreased
- lipid accumulation in liver cells [3, 8]: lowered
- morphology of liver cells [3, 8]: restored normal morphology
- levels of tentative ClpP effectors (Trap1, ClpX, LRPPRC, LonP, and OAT) in liver mitochondrion lysates [5]: higher
- lipid accumulation in liver cells [6, 9]: lowered
- morphology of liver cells [6, 9]: restored normal morphology
- body weight ([6]; at the end of the treatment, vs vehicle (FIG. 34 panel B)): significantly decreased
- insulin sensitivity (glucose tolerance tests) ([6]; vs vehicle (FIG. 35 panel C)): increased
- fasting blood glucose levels ([6]; vs vehicle (FIG. 35 panel D)): significantly lower
